# Data as given in ChEMBL document CHEMBL4507297, “Data for DCP probe PF-04457845” (2021).
# Experiments:
# [1] = target: Tyrosine-protein kinase JAK1 (Homo sapiens) (UniProt P23458); settings: Compound concentration 1000.0 nM
# [2] = target: Hormonally up-regulated neu tumor-associated kinase (Homo sapiens) (UniProt P57058); settings: Compound concentration 1000.0 nM
# [3] = target: Calcium/calmodulin-dependent protein kinase type 1G (Homo sapiens) (UniProt Q96NX5); settings: Compound concentration 1000.0 nM
# [4] = target: Tyrosine-protein kinase Fgr (Homo sapiens) (UniProt P09769); settings: Compound concentration 1000.0 nM
# Chain of Tyrosine-protein kinase Fgr (Homo sapiens) (P09769 2-529 limits assumed): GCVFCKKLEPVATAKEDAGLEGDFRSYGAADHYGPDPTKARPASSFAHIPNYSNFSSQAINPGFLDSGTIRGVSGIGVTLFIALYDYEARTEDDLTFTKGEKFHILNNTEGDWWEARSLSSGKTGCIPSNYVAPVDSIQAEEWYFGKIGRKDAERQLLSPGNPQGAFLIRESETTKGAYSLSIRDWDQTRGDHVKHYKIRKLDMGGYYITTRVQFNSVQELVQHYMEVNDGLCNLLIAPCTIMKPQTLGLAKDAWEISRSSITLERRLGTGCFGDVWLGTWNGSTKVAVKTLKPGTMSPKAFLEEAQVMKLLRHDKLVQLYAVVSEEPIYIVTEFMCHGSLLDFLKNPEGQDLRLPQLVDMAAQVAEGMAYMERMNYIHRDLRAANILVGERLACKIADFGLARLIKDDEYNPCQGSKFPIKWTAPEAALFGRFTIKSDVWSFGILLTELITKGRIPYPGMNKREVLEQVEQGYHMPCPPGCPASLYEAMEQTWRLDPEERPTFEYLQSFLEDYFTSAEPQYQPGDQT
# [5] = target: Tyrosine-protein kinase JAK3 (Homo sapiens) (UniProt P52333); settings: Compound concentration 1000.0 nM
# [6] = target: Mitotic checkpoint serine/threonine-protein kinase BUB1 (Homo sapiens) (UniProt O43683); settings: Compound concentration 1000.0 nM
# [7] = target: Ribosomal protein S6 kinase alpha-4 (Homo sapiens) (UniProt O75676); settings: Compound concentration 1000.0 nM
# [8] = target: Tyrosine-protein kinase Fyn (Homo sapiens) (UniProt P06241); settings: Compound concentration 1000.0 nM
# Chain of Tyrosine-protein kinase Fyn (Homo sapiens) (P06241 2-537 limits assumed): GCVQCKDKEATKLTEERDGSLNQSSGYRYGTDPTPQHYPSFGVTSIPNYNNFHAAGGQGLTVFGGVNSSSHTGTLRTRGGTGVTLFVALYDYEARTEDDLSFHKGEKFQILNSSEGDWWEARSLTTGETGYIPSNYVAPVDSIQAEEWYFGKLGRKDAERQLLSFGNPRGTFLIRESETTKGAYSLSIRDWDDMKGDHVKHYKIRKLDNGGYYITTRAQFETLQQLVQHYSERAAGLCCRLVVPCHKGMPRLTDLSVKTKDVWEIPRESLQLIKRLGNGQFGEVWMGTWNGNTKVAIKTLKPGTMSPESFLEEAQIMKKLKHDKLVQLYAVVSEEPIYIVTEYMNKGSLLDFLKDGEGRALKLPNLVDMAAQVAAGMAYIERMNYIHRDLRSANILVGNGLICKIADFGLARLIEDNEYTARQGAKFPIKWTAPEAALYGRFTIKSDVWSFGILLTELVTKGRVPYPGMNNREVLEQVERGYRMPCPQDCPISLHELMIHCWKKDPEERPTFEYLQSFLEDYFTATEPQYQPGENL
# [9] = system: Tyrosine-protein kinase ABL1 (Homo sapiens), P00519 [H396P]; settings: Compound concentration 1000.0 nM
# [10] = target: Dual specificity protein kinase TTK (Homo sapiens) (UniProt P33981); settings: Compound concentration 1000.0 nM
# [11] = target: Serine/threonine-protein kinase 32B (Homo sapiens) (UniProt Q9NY57); settings: Compound concentration 1000.0 nM
# [12] = target: Rho-associated protein kinase 1 (Homo sapiens) (UniProt Q13464); settings: Compound concentration 1000.0 nM
# [13] = target: Tyrosine-protein kinase BTK (Homo sapiens) (UniProt Q06187); settings: Compound concentration 1000.0 nM
# Chain of Tyrosine-protein kinase BTK (Homo sapiens) (Q06187 whole entry): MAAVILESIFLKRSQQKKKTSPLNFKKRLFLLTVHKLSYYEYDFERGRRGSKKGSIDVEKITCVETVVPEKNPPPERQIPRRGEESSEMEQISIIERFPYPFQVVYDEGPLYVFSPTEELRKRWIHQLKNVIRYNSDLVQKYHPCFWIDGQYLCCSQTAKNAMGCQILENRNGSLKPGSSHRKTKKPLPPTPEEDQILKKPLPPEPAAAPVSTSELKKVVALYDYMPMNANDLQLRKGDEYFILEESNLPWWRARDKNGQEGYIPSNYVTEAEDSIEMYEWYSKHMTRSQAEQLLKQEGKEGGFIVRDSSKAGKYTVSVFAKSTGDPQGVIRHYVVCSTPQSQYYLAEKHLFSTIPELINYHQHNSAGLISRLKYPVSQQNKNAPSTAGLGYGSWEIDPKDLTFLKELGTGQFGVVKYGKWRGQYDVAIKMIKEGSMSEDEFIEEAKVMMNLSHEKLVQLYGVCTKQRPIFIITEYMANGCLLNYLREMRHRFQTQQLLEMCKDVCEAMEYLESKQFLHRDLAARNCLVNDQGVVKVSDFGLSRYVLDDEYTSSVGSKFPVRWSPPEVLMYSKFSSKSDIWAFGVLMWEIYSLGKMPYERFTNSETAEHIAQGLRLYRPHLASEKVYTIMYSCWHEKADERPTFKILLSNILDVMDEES
# [14] = target: 1-phosphatidylinositol 3-phosphate 5-kinase (Homo sapiens) (UniProt Q9Y2I7); settings: Compound concentration 1000.0 nM
# [15] = target: Serine/threonine-protein kinase PAK 6 (Homo sapiens) (UniProt Q9NQU5); settings: Compound concentration 1000.0 nM
# [16] = target: Tyrosine-protein kinase receptor UFO (Homo sapiens) (UniProt P30530); settings: Compound concentration 1000.0 nM
# Chain of Tyrosine-protein kinase receptor UFO (Homo sapiens) (P30530 whole entry): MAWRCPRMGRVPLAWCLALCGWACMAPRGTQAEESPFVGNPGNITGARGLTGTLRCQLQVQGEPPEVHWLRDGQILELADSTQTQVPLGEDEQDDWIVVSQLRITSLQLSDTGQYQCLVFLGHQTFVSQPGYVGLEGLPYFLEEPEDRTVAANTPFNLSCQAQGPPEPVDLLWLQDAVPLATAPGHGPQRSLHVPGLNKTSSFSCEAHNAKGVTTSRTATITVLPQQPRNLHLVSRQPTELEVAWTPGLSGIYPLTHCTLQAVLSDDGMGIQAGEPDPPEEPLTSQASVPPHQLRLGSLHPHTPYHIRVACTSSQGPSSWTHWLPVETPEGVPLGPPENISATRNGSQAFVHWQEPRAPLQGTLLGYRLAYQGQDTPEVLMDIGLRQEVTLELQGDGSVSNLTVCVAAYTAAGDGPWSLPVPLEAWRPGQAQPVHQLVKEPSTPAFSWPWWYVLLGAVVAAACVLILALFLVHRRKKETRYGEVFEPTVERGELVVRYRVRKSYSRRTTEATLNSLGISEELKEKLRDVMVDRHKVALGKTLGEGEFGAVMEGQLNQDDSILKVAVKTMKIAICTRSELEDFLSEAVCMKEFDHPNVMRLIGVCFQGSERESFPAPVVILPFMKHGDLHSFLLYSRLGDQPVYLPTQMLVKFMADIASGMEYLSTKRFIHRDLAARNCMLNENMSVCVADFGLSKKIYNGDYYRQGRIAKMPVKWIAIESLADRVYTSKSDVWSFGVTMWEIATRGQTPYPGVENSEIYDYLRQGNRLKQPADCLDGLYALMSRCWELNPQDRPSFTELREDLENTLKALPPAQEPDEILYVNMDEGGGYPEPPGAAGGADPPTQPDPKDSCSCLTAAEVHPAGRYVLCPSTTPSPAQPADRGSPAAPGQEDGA
# [17] = system: eIF-2-alpha kinase GCN2 (Homo sapiens), Q9P2K8 [S808G]; settings: Compound concentration 1000.0 nM
# [18] = target: Muscarinic acetylcholine receptor M4 (Homo sapiens) (UniProt P08173); settings: Compound concentration 10.0 uM
# [19] = target: Epithelial discoidin domain-containing receptor 1 (Homo sapiens) (UniProt Q08345); settings: Compound concentration 1000.0 nM
# [20] = target: RAC-gamma serine/threonine-protein kinase (Homo sapiens) (UniProt Q9Y243); settings: Compound concentration 1000.0 nM
# Chain of RAC-gamma serine/threonine-protein kinase (Homo sapiens) (Q9Y243 whole entry): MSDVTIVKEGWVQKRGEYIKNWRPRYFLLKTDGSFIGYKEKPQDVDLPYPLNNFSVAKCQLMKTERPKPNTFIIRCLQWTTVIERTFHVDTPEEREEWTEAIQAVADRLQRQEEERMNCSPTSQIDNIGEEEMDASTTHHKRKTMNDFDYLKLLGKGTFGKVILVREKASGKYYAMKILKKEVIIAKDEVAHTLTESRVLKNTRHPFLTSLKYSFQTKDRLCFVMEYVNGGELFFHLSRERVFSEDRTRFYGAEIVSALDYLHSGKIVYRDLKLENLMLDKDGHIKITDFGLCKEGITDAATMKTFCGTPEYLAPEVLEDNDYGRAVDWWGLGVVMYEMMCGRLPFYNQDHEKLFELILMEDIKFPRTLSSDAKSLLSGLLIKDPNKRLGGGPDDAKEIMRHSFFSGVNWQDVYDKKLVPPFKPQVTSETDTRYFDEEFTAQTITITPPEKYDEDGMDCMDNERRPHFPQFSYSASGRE
# [21] = target: Death-associated protein kinase 3 (Homo sapiens) (UniProt O43293); settings: Compound concentration 1000.0 nM
# Chain of Death-associated protein kinase 3 (Homo sapiens) (O43293 whole entry, looked up): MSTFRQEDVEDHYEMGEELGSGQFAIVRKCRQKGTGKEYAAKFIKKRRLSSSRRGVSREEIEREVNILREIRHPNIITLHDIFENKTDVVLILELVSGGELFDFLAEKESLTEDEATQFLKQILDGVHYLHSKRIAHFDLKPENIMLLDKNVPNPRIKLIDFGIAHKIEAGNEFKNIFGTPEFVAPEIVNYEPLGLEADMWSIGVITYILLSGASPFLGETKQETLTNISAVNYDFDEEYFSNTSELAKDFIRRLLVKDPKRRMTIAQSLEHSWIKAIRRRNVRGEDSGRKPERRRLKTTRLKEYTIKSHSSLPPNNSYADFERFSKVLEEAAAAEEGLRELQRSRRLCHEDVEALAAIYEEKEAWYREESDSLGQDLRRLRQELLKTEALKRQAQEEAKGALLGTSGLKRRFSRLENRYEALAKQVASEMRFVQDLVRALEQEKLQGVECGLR
# [22] = target: Mitogen-activated protein kinase kinase kinase 20 (Homo sapiens) (UniProt Q9NYL2); settings: Compound concentration 1000.0 nM
# [23] = target: Receptor tyrosine-protein kinase erbB-4 (Homo sapiens) (UniProt Q15303); settings: Compound concentration 1000.0 nM
# [24] = target: Inhibitor of nuclear factor kappa-B kinase subunit alpha (Homo sapiens) (UniProt O15111); settings: Compound concentration 1000.0 nM
# [25] = target: Serine/threonine-protein kinase MRCK beta (Homo sapiens) (UniProt Q9Y5S2); settings: Compound concentration 1000.0 nM
# [26] = target: Phosphatidylinositol 4,5-bisphosphate 3-kinase catalytic subunit beta isoform (Homo sapiens) (UniProt P42338); settings: Compound concentration 1000.0 nM
# [27] = target: Serine/threonine-protein kinase Chk2 (Homo sapiens) (UniProt O96017); settings: Compound concentration 1000.0 nM
# [28] = target: Serine/threonine-protein kinase PLK1 (Homo sapiens) (UniProt P53350); settings: Compound concentration 1000.0 nM
# Chain of Serine/threonine-protein kinase PLK1 (Homo sapiens) (P53350 whole entry): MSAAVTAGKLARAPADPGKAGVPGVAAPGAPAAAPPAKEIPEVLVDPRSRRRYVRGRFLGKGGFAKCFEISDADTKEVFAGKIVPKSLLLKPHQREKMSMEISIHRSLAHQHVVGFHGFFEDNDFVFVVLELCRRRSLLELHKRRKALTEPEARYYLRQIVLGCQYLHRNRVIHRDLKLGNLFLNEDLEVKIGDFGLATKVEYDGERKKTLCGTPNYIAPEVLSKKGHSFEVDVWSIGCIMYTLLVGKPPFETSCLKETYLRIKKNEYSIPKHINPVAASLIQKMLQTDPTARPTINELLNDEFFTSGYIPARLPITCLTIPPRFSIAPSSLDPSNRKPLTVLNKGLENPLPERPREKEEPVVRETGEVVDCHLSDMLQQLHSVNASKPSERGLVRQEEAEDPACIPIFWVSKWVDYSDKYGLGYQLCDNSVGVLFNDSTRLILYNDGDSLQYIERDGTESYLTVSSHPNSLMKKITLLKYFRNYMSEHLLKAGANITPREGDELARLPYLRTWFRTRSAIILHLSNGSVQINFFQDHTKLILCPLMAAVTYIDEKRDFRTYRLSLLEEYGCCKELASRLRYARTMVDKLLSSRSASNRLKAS
# [29] = system: Epidermal growth factor receptor (Homo sapiens), P00533 [G719S]; settings: Compound concentration 1000.0 nM
# [30] = target: Serine/threonine-protein kinase SIK2 (Homo sapiens) (UniProt Q9H0K1); settings: Compound concentration 1000.0 nM
# [31] = system: Tyrosine-protein kinase ABL1 (Homo sapiens), P00519 [E255K]; settings: Compound concentration 1000.0 nM
# [32] = target: 5-hydroxytryptamine receptor 1B (Homo sapiens) (UniProt P28222); settings: Compound concentration 10.0 uM
# Chain of 5-hydroxytryptamine receptor 1B (Homo sapiens) (P28222 whole entry): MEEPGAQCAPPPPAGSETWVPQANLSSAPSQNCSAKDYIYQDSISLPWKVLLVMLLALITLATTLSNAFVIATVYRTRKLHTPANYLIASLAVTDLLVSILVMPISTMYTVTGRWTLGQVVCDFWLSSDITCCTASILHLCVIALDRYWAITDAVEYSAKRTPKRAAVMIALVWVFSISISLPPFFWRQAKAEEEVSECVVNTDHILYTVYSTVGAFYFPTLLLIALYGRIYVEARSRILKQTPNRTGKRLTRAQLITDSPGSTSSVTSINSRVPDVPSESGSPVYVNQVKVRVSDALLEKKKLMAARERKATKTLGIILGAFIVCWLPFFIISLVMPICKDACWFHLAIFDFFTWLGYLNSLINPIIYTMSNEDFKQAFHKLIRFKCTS
# [33] = target: Serine/threonine-protein kinase Chk1 (Homo sapiens) (UniProt O14757); settings: Compound concentration 1000.0 nM
# [34] = target: Cyclin-dependent kinase 11B (Homo sapiens) (UniProt P21127); settings: Compound concentration 1000.0 nM
# [35] = target: LIM domain kinase 2 (Homo sapiens) (UniProt P53671); settings: Compound concentration 1000.0 nM
# [36] = target: Serine/threonine-protein kinase/endoribonuclease IRE1 (Homo sapiens) (UniProt O75460); settings: Compound concentration 1000.0 nM
# [37] = target: Interleukin-1 receptor-associated kinase 4 (Homo sapiens) (UniProt Q9NWZ3); settings: Compound concentration 1000.0 nM
# [38] = target: Cyclin-dependent kinase 2 (Homo sapiens) (UniProt P24941); settings: Compound concentration 1000.0 nM
# [39] = target: Serine/threonine-protein kinase SIK1 (Homo sapiens) (UniProt P57059); settings: Compound concentration 1000.0 nM
# [40] = target: Casein kinase I isoform gamma-3 (Homo sapiens) (UniProt Q9Y6M4); settings: Compound concentration 1000.0 nM
# [41] = target: Serine/threonine-protein kinase Nek7 (Homo sapiens) (UniProt Q8TDX7); settings: Compound concentration 1000.0 nM
# [42] = target: Serine/threonine-protein kinase STK11 (Homo sapiens) (UniProt Q15831); settings: Compound concentration 1000.0 nM
# [43] = target: Inhibitor of nuclear factor kappa-B kinase subunit beta (Homo sapiens) (UniProt O14920); settings: Compound concentration 1000.0 nM
# [44] = target: Uncharacterized serine/threonine-protein kinase SBK3 (Homo sapiens) (UniProt P0C264); settings: Compound concentration 1000.0 nM
# Chain of Uncharacterized serine/threonine-protein kinase SBK3 (Homo sapiens) (P0C264 whole entry): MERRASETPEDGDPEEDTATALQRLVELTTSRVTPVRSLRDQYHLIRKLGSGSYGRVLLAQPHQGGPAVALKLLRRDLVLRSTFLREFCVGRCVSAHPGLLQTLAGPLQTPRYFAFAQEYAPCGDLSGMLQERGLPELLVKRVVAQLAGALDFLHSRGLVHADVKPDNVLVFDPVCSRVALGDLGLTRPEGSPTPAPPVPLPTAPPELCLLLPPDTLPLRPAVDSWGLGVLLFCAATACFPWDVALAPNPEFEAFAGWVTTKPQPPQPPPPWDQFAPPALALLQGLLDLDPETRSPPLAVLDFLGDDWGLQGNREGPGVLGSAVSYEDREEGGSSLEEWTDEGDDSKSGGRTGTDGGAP
# [45] = target: Calcium/calmodulin-dependent protein kinase type IV (Homo sapiens) (UniProt Q16566); settings: Compound concentration 1000.0 nM
compound,measurement,setting,value
O=C(Nc1cccnn1)N1CC(C/C=C/c2cncc(Oc3ccc(C(F)(F)F)cn3)n2)C1,residual activity,[1],95%
same,residual activity,[2],89%
same,residual activity,[3],100%
same,residual activity,[4],100%
same,residual activity,[5],100%
same,residual activity,[6],1.4%
same,residual activity,[7],100%
same,residual activity,[8],100%
same,residual activity,[9],100%
same,residual activity,[10],100%
same,residual activity,[11],100%
same,residual activity,[12],82%
same,residual activity,[13],59%
same,residual activity,[14],100%
same,residual activity,[15],100%
same,residual activity,[16],100%
same,residual activity,[17],97%
same,inhibition,[18],-7.53%
same,residual activity,[19],99%
same,residual activity,[20],100%
same,residual activity,[21],100%
same,residual activity,[22],100%
same,residual activity,[23],100%
same,residual activity,[24],69%
same,residual activity,[25],100%
same,residual activity,[26],79%
same,residual activity,[27],100%
same,residual activity,[28],87%
same,residual activity,[29],100%
same,residual activity,[30],100%
same,residual activity,[31],81%
same,inhibition,[32],4.8%
same,residual activity,[33],100%
same,residual activity,[34],100%
same,residual activity,[35],95%
same,residual activity,[36],67%
same,residual activity,[37],100%
same,residual activity,[38],100%
same,residual activity,[39],100%
same,residual activity,[40],100%
same,residual activity,[41],100%
same,residual activity,[42],64%
same,residual activity,[43],94%
same,residual activity,[44],100%
same,residual activity,[45],100%
O=C(Nc1cccnn1)N1CCC(=Cc2cccc(Oc3ccc(C(F)(F)F)cn3)c2)CC1,residual activity,[1],100%
same,residual activity,[2],87%
same,residual activity,[3],95%
same,residual activity,[4],63%
same,residual activity,[5],100%
same,residual activity,[6],100%
same,residual activity,[7],98%
same,residual activity,[8],100%
same,residual activity,[9],86%
same,residual activity,[10],100%
same,residual activity,[11],82%
same,residual activity,[12],100%
same,residual activity,[13],100%
same,residual activity,[14],100%
same,residual activity,[15],100%
same,residual activity,[16],100%
same,residual activity,[17],87%
same,inhibition,[18],7.38%
same,residual activity,[19],79%
same,residual activity,[20],100%
same,residual activity,[21],79%
same,residual activity,[22],95%
same,residual activity,[23],100%
same,residual activity,[24],93%
same,residual activity,[25],100%
same,residual activity,[26],100%
same,residual activity,[27],94%
same,residual activity,[28],100%
same,residual activity,[29],99%
same,residual activity,[30],100%
same,residual activity,[31],85%
same,inhibition,[32],24.4%
same,residual activity,[33],78%
same,residual activity,[34],100%
same,residual activity,[35],88%
same,residual activity,[36],92%
same,residual activity,[37],97%
same,residual activity,[38],100%
same,residual activity,[39],100%
same,residual activity,[40],100%
same,residual activity,[41],100%
same,residual activity,[42],100%
same,residual activity,[43],83%
same,residual activity,[44],100%
same,residual activity,[45],63%
